Among the test systems are KM-20L2; DMS-114; HOP-18; XF498; RXF 631; DLD-1; SNB-78; M19-MEL; LXFL 529.
Common to all, as to test: growth of human tumour cells (NCI), 48 h

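All cell lines were grown in 96-well plates and treated with compound for 48 hours. GI50: concentration for 50% inhibition of growth.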 Active and inactive are the calls of the source. Cut-off read from the data, not from the text of the source: active = GI50 up to about 1.1 µM and inactive = higher.

Regarding `COc1ccc(C2C(C(=O)O)=C(COC(C)=O)Oc3cc4c(cc32)OCO4)c(OC)c1` (centres undefined), the GI50 in the test with KM-20L2, in the test on DMS-114, in the test with HOP-18, in the test on XF498, in the test with RXF 631 and in the test on DLD-1 was > 100 µM (inactive) throughout. Besides, the GI50 with SNB-78 and with M19-MEL was > 100 µM (inactive) in each case.

As for `CC(C)N(C(=O)C12C3C4C5C3C1(C(=O)N(C(C)C)C(C)C)C5(C#N)C42)C(C)C` (centres undefined), the GI50 with LXFL 529, with KM-20L2, in the test with DMS-114, with HOP-18, in the test on XF498 and in the test with RXF 631 was > 100 µM (inactive) in each case. Further, the GI50 with DLD-1 is 27.1 µM (inactive); in the test with SNB-78, > 100 µM (inactive); in the test on M19-MEL it was > 100 µM (inactive).

With `O=C(O)[C@H](NS(=O)(=O)c1ccc([N+](=O)[O-])cc1)c1ccccc1`, the GI50 in the test with LXFL 529, in the test with KM-20L2, in the test on DMS-114, with HOP-18, in the test with XF498 and in the test with RXF 631 was > 100 µM (inactive) in each case. The GI50 in the test with DLD-1, in the test with SNB-78 and in the test on M19-MEL was > 100 µM (inactive) throughout.

On to `COc1cc2c(cc1O)CCN[C@@]21CS[C@H]2c3c(OC(C)=O)c(C)c4c(c3C(COC1=O)N1C2C2NC(Cc3cc(C)c(OC)c(O)c32)[C@@H]1C#N)OCO4` (some centres undefined), for which the GI50 in the test with LXFL 529, in the test with KM-20L2, in the test on DMS-114, in the test with XF498, with RXF 631 and in the test on DLD-1 was < 0.01 µM (active) in each case. The GI50 in the test with M19-MEL is < 0.01 µM (active).

Regarding `COC(=O)C(=O)C(C(=O)C(=O)Nc1ccccc1C(N)=O)c1nc2ccc(C(=O)c3ccccc3)cc2nc1O` (centres undefined), the GI50 in the test on LXFL 529 is 44.6 µM (inactive); in the test on KM-20L2 it was > 100 µM (inactive); with DMS-114, > 100 µM (inactive); with HOP-18 it was 37.1 µM (inactive); in the test with XF498, > 100 µM (inactive); in the test on RXF 631, > 100 µM (inactive). Besides, the GI50 was 68.7 µM (inactive) in the test with SNB-78 and > 100 µM (inactive) in the test with M19-MEL.

Consider `COc1ccc([Se][Se]c2ccc(OC)cc2OC)c(OC)c1`, for which the GI50 in the test on LXFL 529 was 2.1 µM (inactive); in the test with DMS-114 it was 2.01 µM (inactive); in the test on HOP-18 it was 1.97 µM (inactive); with XF498, 1.94 µM (inactive); in the test on RXF 631 it was 6.31 µM (inactive); with DLD-1, 3.3 µM (inactive). For the same compound, the GI50 in the test on SNB-78 is 2.66 µM (inactive); with M19-MEL it was 2.03 µM (inactive).

`CCCC/C=C/C1Cc2ccccc2CN1S(=O)(=O)c1ccc(C)cc1` (centres undefined): the GI50 with LXFL 529 was 5.42 µM (inactive); in the test on KM-20L2, 11.6 µM (inactive); in the test on DMS-114, 3.03 µM (inactive); in the test with HOP-18 it was 83 µM (inactive); in the test with XF498, 17 µM (inactive); in the test on RXF 631 it was 5.78 µM (inactive). In addition, the GI50 in the test with DLD-1 is 7.71 µM (inactive); with M19-MEL, 6.01 µM (inactive).

`c1ccc(N2N=NC3C4CC(C5c6ccccc6C45)C32)cc1` (centres undefined): the GI50 is 44 µM (inactive) in the test on LXFL 529; 32.4 µM (inactive) with KM-20L2; 19.9 µM (inactive) in the test with DMS-114; 19.1 µM (inactive) with XF498; 34.7 µM (inactive) with RXF 631; 32.5 µM (inactive) with DLD-1. For the same compound, the GI50 is 43.4 µM (inactive) in the test on SNB-78 and 22.7 µM (inactive) in the test with M19-MEL.

As to `CNC1=C(C)C(=O)C(C)=C(C(C)(C)CC(=O)n2cc(F)c(=O)[nH]c2=O)C1=O`, the GI50 in the test with LXFL 529 was > 89.1 µM (inactive); in the test on KM-20L2, 31.3 µM (inactive); in the test on DMS-114 it was 74.6 µM (inactive); with HOP-18 it was > 100 µM (inactive); with XF498, 97.7 µM (inactive); in the test with RXF 631 it was 23.4 µM (inactive). The GI50 was 12.8 µM (inactive) in the test with DLD-1, > 100 µM (inactive) with SNB-78 and 49.7 µM (inactive) in the test with M19-MEL.
